Assay results: article PMC4760274, “Elongation factor 2 kinase promotes cell survival by inhibiting protein synthesis without inducing autophagy” (Cellular Signalling, 2016)

How the values were obtained:
[1] = tested on: GST-BHMT cleavage (autophagic flux) in A549 cells; test: GST-BHMT cleavage assay in A549 cells; format: cell-based, human; details: AZD8055 1 μM, 16 h, Fig. 2B
Description: Cells were lysed as above. […] The precipitated GST-BHMT was washed three times in the ice cold lysis buffer. Precipitates were then boiled in SDS-PAGE sample buffer, resolved by SDS-PAGE and analysed by western blotting using anti-GST antibody.
Cells were then treated with 10 mM 2-deoxyglucose (2DG), rapamycin (100 nM), AZD8055 (1 μM) or MG132 (10 μM) for 16 h. Cells were then lysed and samples containing equal amounts of protein were analysed by western blot using the indicated antibodies. […] (B) A549 cells were cultured as in (A) to induce eEF2K knockdown. A549 cells were transiently transfected with the GST-BHMT construct and maintained in full media in the presence or absence of AZD8055 (1 μM) for 16 h, in the presence of leupeptin and E64d. GST-BHMT was precipitated with glutathione agarose from the whole cell extracts (bottom panel). […] (E) Untransfected A549 cells were treated with AZD8055 and BafA1 as described in A, cell lysates were collected at T0, 1 and 3 h for immunoblotting analysis.

[2] = tested on: autolysosome formation in A549 cells; test: autophagic flux analysis with mCherry-EGFP-LC3B in A549 cells; format: cell-based, human; details: AZD8055 1 μM, after release from BafA1, Fig. 2C, D
Description: A549 cells were transfected with a vector encoding mCherry-EGFP-LC3B, a tandem fluorescent-tagged LC3 (a kind gift from Dr. Terje Johansen, Biochemistry Department, Institute of Medical Biology, University of Tromsø, Norway), using lipofectamine 3000 (L3000001, Life technologies) following manufacturer's instructions. After treatment cells were washed twice in phosphate buffered saline (PBS, 18912-014, Gibco) and then fixed in 4% formaldehyde (F8775, Sigma-Aldrich) for 15 min. Fixed cells were washed thrice in PBS and permeabilized with 0.1% Triton-X 100 for 5 min. Cells were then again washed thrice in PBS and mounted in ProLong® Gold Antifade Mountant (P36935, Life technologies). Cells were visualized using Leica TCS SP8X/MP microscope equipped with a tuneable white light laser using a 40 × oil immersion objective lens (NA = 1.30) numerical aperture objective. Green/red fluorescence ratio (GFP loss upon autolysosome formation) was measured using the Leica Application Suite X (LAS X) software (version 1.1.0).
We also examined the progression of autolysosome formation using a tandem fluorescently-tagged LC3 (mCherry-EGFP-LC3B) which allowed us to determine autophagosome and lysosome fusion by evaluating loss of GFP fluorescence. Green (GFP) but not red (mCherry) fluorescence is quenched by protonation in response to acidified intra-lysosomal pH upon autolysosome fusion. […]

P-eEF2 in A549 cells = test: eEF2 phosphorylation in A549 cells (western blot); format: cell-based, human; details: 16 h, AZD8055 1 μM
Description: (§1) After treatment, cells were lysed in ice-cold lysis buffer containing 1% (v/v) Triton X-100 (215680010, Acros Organics), 50 mM Tris (T6066-1KG, Sigma-Aldrich)–HCl (258148-2.5 L, Sigma-Aldrich) pH 7.4, 50 mM NaCl (BP358-212, Fisher Scientific), 0.2 mM EDTA (BP120-500, Fisher Scientific), 0.2 mM EGTA (E1102, Melford), 50 mM β-glycerophosphate (G9422, Sigma-Aldrich), 1 mM Na3VO4 (S6508, Sigma-Aldrich), 15 mM β-mercaptoethanol (125472500, Acros Organics) and 1 × protease inhibitor cocktail (5056489001, Roche). Lysates were spun at 16,000 × g for 10 min at 4 °C; the supernatants were kept and total protein concentration was quantified by Bradford assay following the manufacturer's instructions.
(§2) These procedures were performed as described previously.
Cells were then treated with 10 mM 2-deoxyglucose (2DG), rapamycin (100 nM), AZD8055 (1 μM) or MG132 (10 μM) for 16 h. Cells were then lysed and samples containing equal amounts of protein were analysed by western blot using the indicated antibodies. Values given below each lane show quantitation of the signal for LC3II, corrected for the actin signal from multiple experiments as in (A) expressed as LC3II normalized to actin, mean ± SEM (control cells without treatment = 1; n = 3). (B) A549 cells were cultured as in (A) to induce eEF2K knockdown. A549 cells were transiently transfected with the GST-BHMT construct and maintained in full media in the presence or absence of AZD8055 (1 μM) for 16 h, in the presence of leupeptin and E64d. GST-BHMT was precipitated with glutathione agarose from the whole cell extracts (bottom panel). Values given below show the quantitation of data from multiple experiments as in (B) expressed as the level of BHMT fragment normalized to the control without IPTG, mean ± SEM (control cells without treatment = 1; n = 3). Values given below each lane show quantitation of the signal for P-eEF2, corrected for the eEF2 signal from multiple experiments as in (B) expressed as P-eEF2 normalized to eEF2, mean ± SEM (control cells without treatment = 1; n = 3). (C) Cells were treated as described in Supplemental Fig. S3, visualized by confocal microscopy and the rate of autophagosome–lysosome fusion was measured according to green/red fluorescence ratio which reflect the percentage of unfused LC3. Scale bar = 20 μm. (D) Data quantification of C, data are presented as means ± SEM. (n = 5) ***P < 0.001, obtained by two-way ANOVA (Dunnett's test). (E) Untransfected A549 cells were treated with AZD8055 and BafA1 as described in A, cell lysates were collected at T0, 1 and 3 h for immunoblotting analysis. Values given below each lane show quantitation of the signal for LC3II, corrected for the LC3I signal from multiple experiments as in (E) expressed as LC3II normalized to LC3I, mean ± SEM (control cells without treatment = 1; n = 3).

LC3II in A549 cells = test: LC3 modification in A549 cells (western blot); format: cell-based, human; details: untransfected A549; AZD8055 1 μM; Fig. 2E
Description: as §1, §2
Cells were then treated with 10 mM 2-deoxyglucose (2DG), rapamycin (100 nM), AZD8055 (1 μM) or MG132 (10 μM) for 16 h. Cells were then lysed and samples containing equal amounts of protein were analysed by western blot using the indicated antibodies. Values given below each lane show quantitation of the signal for LC3II, corrected for the actin signal from multiple experiments as in (A) expressed as LC3II normalized to actin, mean ± SEM (control cells without treatment = 1; n = 3). (B) A549 cells were cultured as in (A) to induce eEF2K knockdown. […] (D) Data quantification of C, data are presented as means ± SEM. […]

TSC2−/− MEFs = test: caspase 3/7 assay in TSC2−/− MEFs; format: cell-based, mouse; details: TSC2−/− cells; rapamycin 20 nM; 48 h; Fig. 4B
Description: Caspase 3/7 assays (G8090, Promega) were performed according to the manufacturer's instructions. Briefly, 10,000 cells/well were plated overnight in a 96-well plate. Cells were treated as described in the figure legends for the indicated time period. To measure caspase 3/7 activity, 50 μL of caspase Glo 3/7 reagent was added to each well for 2 h with constant shaking at room temperature. Luminescence was measured using a BMG Labtech FLUOstar Optimi plate reader. Cytotoxicity was evaluated by CellTox Green® cytotoxicity assay (Promega). Briefly, 10,000 cells/well were plated overnight in a 96-well plate. Cells were treated as described in the figure legends for the indicated time period. Fluorescence was measured at 485–500 nmEx/520–530 nmEm using a BMG Labtech FLUOstar Optimi plate reader.
(§3) Fig. 4 eEF2K aids the survival of TSC2^−/− cells under glucose-starved conditions. […] Cells were then lysed and samples containing equal amounts of protein were analysed by western blot using the indicated antibodies. Values given below each lane show quantitation of the signal for LC3II, corrected for the actin signal or P-eEF2, corrected for the eEF2 signal from multiple experiments as in (A), mean ± SEM (control cells without treatment = 1; n = 3). (B) Cells were treated for 48 h as described in (A), except that they were processed for caspase 3/7 assay. […]

P-eEF2 in TSC2−/− MEFs = test: eEF2 phosphorylation in TSC2−/− MEFs (western blot); format: cell-based, mouse; details: TSC2−/− cells starved of glucose; rapamycin 20 nM; Fig. 4A
Description: as §1, with “instructions. […]” for “instructions.”
as §3, with “[…] The − signs of the Glucose row are barely visible, so the condition given” for “(B) Cells were treated”, “each lane is my best reading. / Panel A: which number belongs to which lane or group (Con, JAN-613, JAN-384) is judged from horizontal position only.” for “48 h as described in (A), except that they were processed for caspase 3/7 assay.”

[3] = 2DG 10 mM, rapamycin 100 nM, MG132 10 μM, Fig. 2A

caspase activity in control conditions (TSC2−/− MEFs) | SMILES | cleavage of GST-BHMT [1] | green/red ratio (mCherry-EGFP-LC3B) in comparison to control cells [2] | phosphorylation of eEF2 (P-eEF2 in A549 cells; [3]) | phosphorylation of eEF2 (P-eEF2 in A549 cells; Fig. 2B) | LC3II/I ratio (LC3II in A549 cells) | adverse effect of glucose starvation (caspase 3/7 activity) countered (TSC2−/− MEFs) | eEF2 phosphorylation (P-eEF2 in TSC2−/− MEFs)
 | COc1ccc(-c2ccc3c(N4CCOC[C@@H]4C)nc(N4CCOC[C@@H]4C)nc3n2)cc1CO [AZD8055] | marked increase | remained low | induced the phosphorylation of eEF2 | marked increase | further increase |  | 
decreased | CO[C@H]1C[C@@H]2CC[C@@H](C)[C@@](O)(O2)C(=O)C(=O)N2CCCC[C@H]2C(=O)O[C@H]([C@H](C)C[C@@H]2CC[C@@H](O)[C@H](OC)C2)CC(=O)[C@H](C)/C=C(\C)[C@@H](O)[C@@H](OC)C(=O)[C@H](C)C[C@H](C)/C=C/C=C/C=C/1C [rapamycin] |  |  | induced the phosphorylation of eEF2 |  |  | fully | large increase
